# Source: patent EP4620956A1, “PARP1 INHIBITORS” (Zhejiang Yangli Pharmaceutical Technology Co., Ltd., priority 2022, dated 2024)
# Read-outs that look alike come from different tables or passages of the source.
# Key:
# A549 WT = experiment: Cellular PARylation inhibition, high-content imaging, A549 WT; type: cell-based; details: Homo sapiens, PARylation at the cellular level
# Description: The inhibitory effect of the compounds on PARP1/PARP2 enzyme activity at the cellular level was detected using high-content imaging. A549 WT, PARP1-KO and PARP2-KO cell lines were established in-house, and the cells were revived. After the cells were stable, a sufficient number of cells were collected and 100 µL of the cell suspension was seeded into a 96-well plate. The next day, the example compounds with serially diluted concentrations were added. […] The plate was incubated for 1.5 hours (A549 WT and PARP2-KO cell lines) or 2 hours (PARP1-KO cell line). After removing the supernatant, 0.4 mM H2O2 was added and incubation was carried out for 10 minutes (A549 WT and PARP2-KO cell lines) or 1.5 mM H2O2 was added and incubation was carried out for 15 minutes (PARP1-KO cell line) to induce extensive cellular DNA damage. After removing the supernatant, the cells were fixed with 4% paraformaldehyde for 20 minutes, followed by treatment with 0.5% Triton X-100 for 20 minutes to increase the permeability of the cell membrane. After that, the cells were incubated with 3% BSA for 1 hour to prevent non-specific binding. […] The cell nuclei were stained for 30 minutes by adding 50 µL DAPI (invitrogen, R37606). After washing twice with PBS, images were acquired on OPERETTA CLS™ (PE) by scanning the cells under a 20x water objective lens in non-confocal mode, with 5 fields of view captured per well. […] The inhibition rate was calculated using the fluorescence values from the Max and Min wells, and the dose-response curve was fitted using the analysis software GraphPad Prism 5 to obtain the IC50 value of each compound for the enzyme activity.
# MDA-MB-436 = experiment: Anti-proliferative activity (CellTiter-Glo, 7 days), MDA-MB-436; type: cell-based, human; details: Homo sapiens, MDA-MB-436, 168 h, read-out: MDA-MB-436 IC50
# MDA-MB-231 = experiment: Anti-proliferative activity (CellTiter-Glo, 7 days), MDA-MB-231; type: cell-based, human; details: Homo sapiens, MDA-MB-231, 168 h, read-out: MDA-MB-231 IC50
# DLD-1 BRCA2^-/- = experiment: Anti-proliferative activity (CellTiter-Glo, 7 days), DLD-1 BRCA2-/-; type: cell-based, human; details: Homo sapiens, DLD-1, 168 h; BRCA2-mutated, 7 days
# DLD-1 WT = experiment: Anti-proliferative activity (CellTiter-Glo, 7 days), DLD-1 WT; type: cell-based, human; details: Homo sapiens, DLD-1, 168 h; BRCA2-normal, 7 days
# Description: The anti-proliferation experiment of the compounds on tumour cells adopted the most widely used ATP concentration-based detection method at present. MDA-MB-231 and MDA-MB-436 cell lines were obtained from ATCC, DLD-1 human colourectal adenocarcinoma epithelial cells and DLD-1 BRCA2^-/- cells were obtained from Horizon, and the cells were revived. After the cells were stable, the cells were collected. When the viable cell count exceeded 90%, 450-500 cells were seeded into a 384-well plate. The next day, the example compounds with serially diluted concentrations were added. Only buffer was added to the Max well, and 50 µM AZD2281 was added to the Min well. The plate was incubated for 7 days, and on the eighth day, CellTiter-Glo® reagent (Promega, G7573) was added. The plate was incubated at room temperature for 30 minutes, and the values were read on Envision (PE). The inhibition rate was calculated using the fluorescence values from the Max and Min wells, and the dose-response curve was fitted using the analysis software GraphPad Prism 5 to obtain the IC50 value of each compound for the enzyme activity.
# PARP6 = target: T1, PARP6 (Homo sapiens, UniProt Q2NL67); experiment: Inhibition of PARP6 enzyme activity (chemiluminescence); type: biochemical
# T1 construct: purchased BPS 80506
# PARP11 = target: T2, PARP11 (Homo sapiens, UniProt Q9NR21); experiment: Inhibition of PARP11 enzyme activity (chemiluminescent assay kit); type: biochemical
# T2 construct: purchased BPS 80511
# T2 sequence (Q9NR21 1-338): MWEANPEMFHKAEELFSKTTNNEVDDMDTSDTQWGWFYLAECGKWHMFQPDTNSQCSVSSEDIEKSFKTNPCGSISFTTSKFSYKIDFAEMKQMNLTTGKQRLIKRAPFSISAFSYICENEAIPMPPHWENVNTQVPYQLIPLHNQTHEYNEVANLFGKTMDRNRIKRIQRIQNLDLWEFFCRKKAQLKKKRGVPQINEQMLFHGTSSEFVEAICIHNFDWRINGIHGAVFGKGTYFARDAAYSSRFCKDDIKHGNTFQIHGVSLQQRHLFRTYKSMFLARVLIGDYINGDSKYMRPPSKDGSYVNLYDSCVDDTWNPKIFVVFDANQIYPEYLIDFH
# [1] = test system: MDA-MB-436 xenograft tumour; experiment: Anti-tumour effect in MDA-MB-436 subcutaneous xenograft tumour mouse model; type: in vivo; details: same dose, MDA-MB-436 xenograft mice
# Description: Example 4 was further verified in vivo. A subcutaneous xenograft tumour mouse model of the BRCA1-mutated MDA-MB-436 cell line was selected. Human breast cancer MDA-MB-436 cells (ATCC, HTB-130) were cultured in vitro in a monolayer, with the culture conditions of L-15 medium supplemented with 10% foetal bovine serum, 1% penicillin-streptomycin solution, and 0.01 mg/mL bovine insulin, and cultured at 37°C in a CO2-free incubator. The cells were routinely digested and passaged twice a week using trypsin-EDTA. When the cell confluency reached 80%-90%, the cells were harvested and counted, and 0.2 mL of 1 × 10^7 MDA-MB-436 cells were subcutaneously inoculated on the right back of each mouse (PBS : Matrigel = 1 : 1). When the mean tumour volume reached 152 mm^3, the mice were grouped for drug administration. The day of drug administration was set as Day 0. The tumour volume and the body weight of the mice were monitored twice a week, and the drug treatment lasted for 28 days.
# The diameter of the tumour was measured with a vernier calliper. The tumour volume is calculated according to the following equation: V = 0.5a × b^2, where a and b represent the long and short diameters of the tumour, respectively. The tumour inhibition effect of the compound was evaluated by relative tumour shrinkage rate Reg%. Reg% reflects the rate of tumour volume reduction after treatment. Reg% = (V0-Vt)/V0×100%, where V0 is the tumour volume measured at the time of grouping for drug administration (i.e., d0), and Vt is the tumour volume measured at a certain time point.
# The criteria for compound response in the mouse model were adapted from mRECIST (Modified Response Evaluation Criteria in Solid Tumours) (Gao et al, 2015), and are specifically defined as follows: [formula] • PR (Partial Response): BestResponse < −50% and BestAvgResponse < −20%; [formula] • SD (Stable Disease): BestResponse < 35% and BestAvgResponse < 30%; [formula] • PD (Progressive Disease): other cases; • ORR% is the sum of the proportions of Complete Response (CR) and Partial Response (PR).
# Statistical analysis was performed using Prism software, including the mean value (Mean) and standard error of the mean (SEM) of the tumour volume at each time point for each group. For the statistical analysis of TV, the original TV data from each measurement were used to compare the differences between groups. Two-way ANOVA was applied to include the two factors, i.e., drug administration and time for analysis, followed by the Tukey's multiple comparisons test, wherein p < 0.05 was considered statistically significant.
# PARP3 = target: T3, PARP3 (Homo sapiens, UniProt Q9Y6F1); experiment: Inhibition of PARP3 enzyme activity (chemiluminescence); type: biochemical; details: ratio relative to the PARP1 enzyme activity
# T3 construct: purchased BPS 80503
# T3 sequence (Q9Y6F1 1-533): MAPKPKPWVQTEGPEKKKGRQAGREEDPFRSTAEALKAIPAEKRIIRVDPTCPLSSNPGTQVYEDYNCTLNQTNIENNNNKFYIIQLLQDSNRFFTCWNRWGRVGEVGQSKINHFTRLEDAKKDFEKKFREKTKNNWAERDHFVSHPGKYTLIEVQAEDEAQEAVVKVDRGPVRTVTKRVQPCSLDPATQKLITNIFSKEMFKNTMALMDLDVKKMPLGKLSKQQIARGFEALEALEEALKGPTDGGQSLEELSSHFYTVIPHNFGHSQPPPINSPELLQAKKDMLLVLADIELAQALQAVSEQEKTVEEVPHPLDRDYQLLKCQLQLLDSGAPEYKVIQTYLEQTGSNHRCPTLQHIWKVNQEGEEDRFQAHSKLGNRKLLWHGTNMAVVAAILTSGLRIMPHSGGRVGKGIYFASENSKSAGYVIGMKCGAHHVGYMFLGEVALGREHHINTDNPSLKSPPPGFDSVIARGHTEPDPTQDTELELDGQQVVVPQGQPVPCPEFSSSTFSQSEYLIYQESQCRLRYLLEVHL
# PARP2 = target: T4, PARP2 (Homo sapiens, UniProt Q9UGN5); experiment: PARP2-DNA trapping, fluorescence polarization (FP); type: biochemical
# T4 construct: purchased BPS 80502
# [2] = ratio relative to the PARP1 enzyme activity
# T4 sequence (Q9UGN5 whole entry): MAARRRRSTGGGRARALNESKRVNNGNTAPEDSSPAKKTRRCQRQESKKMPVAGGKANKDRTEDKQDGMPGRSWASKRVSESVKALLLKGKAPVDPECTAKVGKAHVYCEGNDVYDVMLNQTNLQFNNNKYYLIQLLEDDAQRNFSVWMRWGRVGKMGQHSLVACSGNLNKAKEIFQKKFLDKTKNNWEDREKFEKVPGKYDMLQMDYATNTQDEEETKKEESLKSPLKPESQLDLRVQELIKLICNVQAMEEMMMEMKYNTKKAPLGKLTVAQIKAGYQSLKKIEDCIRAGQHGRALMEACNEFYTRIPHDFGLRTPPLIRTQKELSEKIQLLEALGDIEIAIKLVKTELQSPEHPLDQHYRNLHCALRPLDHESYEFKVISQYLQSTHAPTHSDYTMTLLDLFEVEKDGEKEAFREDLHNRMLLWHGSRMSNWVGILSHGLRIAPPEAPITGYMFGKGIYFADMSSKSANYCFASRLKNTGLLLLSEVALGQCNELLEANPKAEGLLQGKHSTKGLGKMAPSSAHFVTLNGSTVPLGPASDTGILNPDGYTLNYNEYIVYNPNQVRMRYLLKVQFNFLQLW
# T1 sequence (Q2NL67 whole entry): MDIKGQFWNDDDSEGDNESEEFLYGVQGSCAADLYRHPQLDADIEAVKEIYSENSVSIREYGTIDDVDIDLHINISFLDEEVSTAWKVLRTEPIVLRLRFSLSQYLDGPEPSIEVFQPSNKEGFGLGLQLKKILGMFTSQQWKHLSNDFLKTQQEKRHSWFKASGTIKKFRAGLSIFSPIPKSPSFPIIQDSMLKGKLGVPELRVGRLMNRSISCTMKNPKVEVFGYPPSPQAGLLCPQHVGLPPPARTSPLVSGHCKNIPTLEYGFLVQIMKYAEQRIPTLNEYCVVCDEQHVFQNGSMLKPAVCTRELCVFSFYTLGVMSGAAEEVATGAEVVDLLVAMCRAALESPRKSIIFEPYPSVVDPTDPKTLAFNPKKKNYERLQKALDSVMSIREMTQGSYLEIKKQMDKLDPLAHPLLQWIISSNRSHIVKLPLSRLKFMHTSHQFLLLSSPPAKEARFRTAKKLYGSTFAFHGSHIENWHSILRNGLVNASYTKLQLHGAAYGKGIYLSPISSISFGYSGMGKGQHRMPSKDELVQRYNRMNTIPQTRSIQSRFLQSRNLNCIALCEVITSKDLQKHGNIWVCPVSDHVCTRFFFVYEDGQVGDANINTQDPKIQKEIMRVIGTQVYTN
smiles,measurement,setting,value
"CCc1cc2ncc(CN3CCN(c4ccc(C(=O)NC)nc4)CC3)cc2[nH]c1=O [AZD5305, reference compound]",IC50,A549 WT,2.2 nM
same,IC50,"MDA-MB-436; BRCA1-mutated, 7 days",1.94 nM
same,IC50,"MDA-MB-231; BRCA1-normal, 7 days",> 10000 nM
same,IC50,DLD-1 BRCA2^-/-,2.12 nM
same,IC50,DLD-1 WT,> 10000 nM
same,IC50,PARP6; enzyme activity,8660 nM
same,PARP6 multiple vs PARP1,PARP6; [2],"20,619"
same,IC50,PARP11; enzyme activity,19.4 nM
same,PARP11 multiple vs PARP1,PARP11; [2],46
same,tumour regression,[1]; FIG. 3,promoted tumour regression
same,ORR,[1]; treatment 28 days,20%
"O=C(c1cc(Cc2n[nH]c(=O)c3ccccc23)ccc1F)N1CCN(C(=O)C2CC2)CC1 [Olaparib, olaparib]",IC50,MDA-MB-436,298 nM
same,IC50,MDA-MB-231,9520 nM
same,PARP3 multiple vs PARP1,PARP3,47
same,Bottom,"PARP2; PARP2, 0.25 hour",-5.4
same,Hillslope,"PARP2; PARP2, 0.25 hour",1.2
same,Top,"PARP2; PARP2, 0.25 hour",107.8
same,Bottom,"PARP2; PARP2, 0.5 hour",-2.7
same,Hillslope,"PARP2; PARP2, 0.5 hour",1.4
same,Top,"PARP2; PARP2, 0.5 hour",109.9
same,Bottom,"PARP2; PARP2, 1 hour",2.8
same,Hillslope,"PARP2; PARP2, 1 hour",2.0
same,Top,"PARP2; PARP2, 1 hour",109.4
same,Bottom,"PARP2; PARP2, 2 hour",-2.0
same,Hillslope,"PARP2; PARP2, 2 hour",2.2
same,Top,"PARP2; PARP2, 2 hour",107.9
same,Bottom,"PARP2; PARP2, 4 hour",-1.4
same,Hillslope,"PARP2; PARP2, 4 hour",1.9
same,Top,"PARP2; PARP2, 4 hour",107.2
same,Bottom,"PARP2; PARP2, 8 hour",1.8
same,Hillslope,"PARP2; PARP2, 8 hour",2.1
same,Top,"PARP2; PARP2, 8 hour",106.5
same,Bottom,"PARP2; PARP2, 24 hour",0.3
same,Hillslope,"PARP2; PARP2, 24 hour",2.0
same,Top,"PARP2; PARP2, 24 hour",109.8
same,Bottom,"PARP2; PARP2, 48 hour",-1.6
same,Hillslope,"PARP2; PARP2, 48 hour",1.8
same,Top,"PARP2; PARP2, 48 hour",110.6
